The values below are quoted from earlier work in patent publication US20110104273A1, “GASTRIC RETENTIVE PHARMACEUTICAL COMPOSITIONS FOR IMMEDIATE AND EXTENDED RELEASE OF PHENYLEPHRINE” (DEPOMED, INC., priority 2009, published 2011).

Counter-ions that a name gives are not always drawn. Like-named read-outs stand apart in the source and are kept apart here.

Assay in data set [1]: not given
This is another data set of the same source.

For `CNC[C@H](O)c1cccc(O)c1` [Phenylephrine, (R)-3-[-1-hydroxy-2-(methylamino)ethyl]phenol alcohol hydrochloride], the “threshold dosage for any effects on the cardiovascular system” value with cardiovascular system (administered orally in man) was “about 50 mg”. The “effects on the cardiovascular system” value in the data set on cardiovascular system (oral over-the-counter (OTC) doses) is “minimal effects”. Moreover, the solubility in water result (hydrochloride) is given as “highly soluble”. For the same compound, in data set [1] (oral), the “absorption from the gut” value is recorded as “well absorbed” and the bioavailability entry is reported as “up to 38%”. Further, the systemic bioavailability result in data set [1] (oral administration) is on record as “around 40%”. The “fraction of oral dose excreted unchanged in the urine” value in data set [1] (oral dose) was “about 3%”.

Turning to `CNC[C@H](O)c1cccc(O)c1` [Phenylephrine HCl], the solubility in water result is listed as “freely soluble”.
